The values below come from patent publication US20230312587A1, “PTERIDINONE COMPOUNDS AND USES THEREOF” (Vertex Pharmaceutical Incorporated, priority 2018, published 2023).

Read-outs that look alike come from different tables or passages of the source.

The test system of assay [1] is β-catenin-TCF-mediated reporter transcription activity in Colo 205 cells. Description: Colo 205 reporter assay (TCF/LEF luciferase). As to conditions: Colo 205 TCF/LEF luciferase reporter, five hours after addition of compound, read-out: TCF reporter Colo205 IC50. The format is cell-based. A digest of the protocol:
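Luciferase signal from a TCF/LEF-driven reporter, stably integrated in Colo 205 colon cancer cells, was measured 5 h after compound addition.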
For orientation: A reporter such as luciferase makes a cellular process visible.

Assay [2] relates to Colo205-TCF/LEF-Luciferase (Luc) tumor. Description: In vivo inhibition of TCF/LEF reporter activity in Colo-205 tumors. Also on record: concentration or dose not given beside the values. As to conditions: TCF/LEF luciferase reporter in Colo-205 tumors, nu/nu mice, oral gavage. The method, then:
Colo205-TCF/LEF-Luciferase (Luc) tumor cells were expanded in complete DMEM cell culture media [DMEM (Life Technologies, product #11960-051) media supplemented with 10% FBS (Hyclone, catalog #SH30071.03), antimycotic/antibiotic (Life Technologies, product #15240-062), and Glutamax (Life Technologies, product #35050-061)] with 1 ug/ml puromycin. After reaching confluency/high density, the loosely attached cells in media were transferred from the flask to 50 ml conical tubes. Tumor cells adhered to plastic were detached with trypsin and combined with cells in the conical tubes. The tumor cells were triturated, counted, and pelleted by centrifugation. Cell pellets were resuspended in 0.9% injectable saline (6×10^7 cells/ml). A 50 ul volume (3×10^6 cells) was injected subcutaneously in the flanks of 4-6 wk old female nu/nu mice (Charles River Laboratories). Approximately 13-16 days after implantation, tumors between 200-500 mm^3 were selected (based on caliper measurements and applying the formula […]) and randomized into groups of n=4. Mice were dosed by oral gavage with compound dissolved in 1:3:5:1 EtOH:DMSO:PEG-400:H2O at a rate of 10 ml/kg or 1:3:5:1 EtOH:DMSO:PEG-400:H2O alone (Vehicle Control). Tumors were collected from mice euthanized by CO2 inhalation and snap frozen in liquid nitrogen. Tumors were stored in a −80 degrees C. freezer until they were processed.
Tumors were thawed on ice and homogenized in cold Lysis Buffer (20 mM Tris-HCl (pH 7.5), 150 mM NaCl, 1 mM Na2EDTA, 1 mM EGTA, 1% Triton, 2.5 mM sodium pyrophosphate, 1 mM beta-glycerophosphate, 1 mM Na3VO4, 1 μg/ml leupeptin, 0.05% SDS) using a closed tissue grinder system (Fisher Scientific, Cat #02-542-09) on ice according to manufacturer's instructions. For 100 mg of tumor, 500 uL of Lysis Buffer was used. Tumor lysate was transferred to a pre-chilled microcentrifuge tube and centrifuged at 10,000×g for 10 minutes at 4 degrees C. Supernatant was transferred to a new pre-chilled microcentrifuge tube and was used immediately for analysis of protein content and luciferase activity.
Protein content of tumor lysate supernatant was determined using the BCA assay (Life Technologies Cat #23225). Luciferase activity of tumor lysate supernatant was determined by addition of Steady-Glo luminescence reagent (Promega, Cat #E2550) according to manufacturer's instructions and measurement on a Pherastar luminescence plate reader (BMG Labtech). Luciferase activity was normalized to protein content.

For `Cc1nc(NCc2cnn(Cc3ccc(C(F)F)nc3)c2)nc2c1NC(=O)[C@H](C1CC1)N2C` [Compound 501, (S)-7-cyclopropyl-2-(((1-((6-(difluoromethyl)pyridin-3-yl)methyl)-1H-pyrazol-4-yl)methyl)amino)-4,8-dimethyl-7,8-dihydropteridin-6(5H)-one], the IC50 (commonly the midpoint of a concentration-inhibition curve) in assay [1] (Homo sapiens, COLO 205, 5 h) is under 300 nM. The “Percent Remaining Activity at 8 hrs after Dosing” value (from here on “Percent Remaining Activity”) in assay [2] was 53%.
For `Cc1nc(NCc2cnn(Cc3ccnc(N(C)C)c3)c2)nc2c1NC(=O)[C@H](C1CC1)N2C` [Compound 466, (S)-7-cyclopropyl-2-(((1-((2-(dimethylamino)pyridin-4-yl)methyl)-1H-pyrazol-4-yl)methyl)amino)-4,8-dimethyl-7,8-dihydropteridin-6(5H)-one], in that order: under 300 nM and 101%.
In the case of `Cc1nc(NCc2cnn(Cc3ccc(Cl)nc3)c2)nc2c1NC(=O)[C@H](C1CC1)N2C` [Compound 434, (7S)-2-(((1-((6-chloropyridin-3-yl)methyl)-1H-pyrazol-4-yl)methyl)amino)-7-cyclopropyl-4,8-dimethyl-7,8-dihydropteridin-6(5H)-one], in assay [1] (Homo sapiens, COLO 205, 5 h), the IC50 is under 300 nM. Besides, the “Percent Remaining Activity” value in assay [2] was found to be 26%.
Turning to `CO[C@H](C)[C@H]1C(=O)Nc2c(C)nc(NCc3cnn(Cc4ccc(Cl)nc4)c3)nc2N1C` [Compound 499, (S)-2-(((1-((6-chloropyridin-3-yl)methyl)-1H-pyrazol-4-yl)methyl)amino)-7-((R)-1-methoxyethyl)-4,8-dimethyl-7,8-dihydropteridin-6(5H)-one], in assay [1] (Homo sapiens, COLO 205, 5 h), the IC50 is under 300 nM. Moreover, the “Percent Remaining Activity” value in assay [2] is recorded as 31%.
For `COCC[C@H]1C(=O)Nc2c(C)nc(NCc3cnn(Cc4ccc(C(F)(F)F)nc4)c3)nc2N1C` [Compound 589, (S)-7-(2-methoxyethyl)-4,8-dimethyl-2-(((1-((6-(trifluoromethyl)pyridin-3-yl)methyl)-1H-pyrazol-4-yl)methyl)amino)-7,8-dihydropteridin-6(5H)-one], in that order: under 300 nM and 94%.
For `Cc1nc(NCc2cnn([C@H]3C[C@H]3c3ccc(F)cc3)c2)nc2c1NC(=O)[C@H](C)N2C` [Compound 155, (7S)-2-(((1-((1S,2S)-2-(4-fluorophenyl)cyclopropyl)-1H-pyrazol-4-yl)methyl)amino)-4,7,8-trimethyl-7,8-dihydropteridin-6(5H)-one], in that order: under 300 nM and 17%.
Taken in the same sequence, the figures for `Cc1nc(NCc2cnn(Cc3ccc(C(F)(F)F)nc3)c2)nc2c1NC(=O)[C@H](C(C)(C)C)N2C` [Compound 436, (7S)-7-(tert-butyl)-4,8-dimethyl-2-(((1-((6-(trifluoromethyl)pyridin-3-yl)methyl)-1H-pyrazol-4-yl)methyl)amino)-7,8-dihydropteridin-6(5H)-one] were under 300 nM and 16%.
For `Cc1nc(NC2CN(C(=O)c3ccc(C(F)(F)F)nc3)C2)nc2c1NC(=O)[C@H](C(C)C)N2C` [Compound 545, (S)-7-isopropyl-4,8-dimethyl-2-((1-(6-(trifluoromethyl)nicotinoyl)azetidin-3-yl)amino)-7,8-dihydropteridin-6(5H)-one], the IC50 in assay [1] (Homo sapiens, COLO 205, 5 h) lay within 300 to 1000 nM. For the same compound, the “Percent Remaining Activity” value in assay [2] is given as 51%.
For `Cc1nc(NCc2cnn(Cc3ccc(Cl)nc3)c2)nc2c1N(C)C(=O)[C@H](CCO)N2C` [Compound 445, (7S)-2-(((1-((6-chloropyridin-3-yl)methyl)-1H-pyrazol-4-yl)methyl)amino)-7-(2-hydroxyethyl)-4,5,8-trimethyl-7,8-dihydropteridin-6(5H)-one], in that order: 300 to 1000 nM and 98%.
Taken in the same sequence, the figures for `Cc1nc(NCc2cnn(Cc3ccc(C(F)F)nc3)c2)nc2c1NC(=O)[C@H](C(C)C)N2C` [Compound 500, (S)-2-(((1-((6-(difluoromethyl)pyridin-3-yl)methyl)-1H-pyrazol-4-yl)methyl)amino)-7-isopropyl-4,8-dimethyl-7,8-dihydropteridin-6(5H)-one] were under 300 nM and 43%.
For `Cc1nc(N[C@H]2C[C@@H](Nc3cnc(C(F)(F)F)cn3)C2)nc2c1NC(=O)[C@H](C)N2C` [Compound 578, (S)-4,7,8-trimethyl-2-((cis-3-((5-(trifluoromethyl)pyrazin-2-yl)amino)cyclobutyl)amino)-7,8-dihydropteridin-6(5H)-one], in assay [1] (Homo sapiens, COLO 205, 5 h), the IC50 is under 300 nM. In addition, the “Percent Remaining Activity” value in assay [2] is 47%.
For `Cc1nc(N[C@H]2C[C@@H](Nc3cnc(C(F)(F)F)cn3)C2)nc2c1NC(=O)[C@H](C(C)C)N2C` [Compound 557, (S)-7-isopropyl-4,8-dimethyl-2-((cis-3-((5-(trifluoromethyl)pyrazin-2-yl)amino)cyclobutyl)amino)-7,8-dihydropteridin-6(5H)-one], in that order: under 300 nM and 20%.
In the case of `Cc1nc(NCc2cnn(Cc3ccnc(C(F)(F)F)c3)c2)nc2c1NC(=O)[C@H](C1CC1)N2C` [Compound 455, (S)-7-cyclopropyl-4,8-dimethyl-2-(((1-((2-(trifluoromethyl)pyridin-4-yl)methyl)-1H-pyrazol-4-yl)methyl)amino)-7,8-dihydropteridin-6(5H)-one], the IC50 in assay [1] (Homo sapiens, COLO 205, 5 h) was under 300 nM. Moreover, in assay [2], the “Percent Remaining Activity” value stood at 63%.
Taken in the same sequence, the figures for `Cc1nc(NC2CN(C(=O)c3cc(F)c(F)c(F)c3)C2)nc2c1NC(=O)[C@H](C(C)C)N2C` [Compound 496, (S)-7-isopropyl-4,8-dimethyl-2-((1-(3,4,5-trifluorobenzoyl)azetidin-3-yl)amino)-7,8-dihydropteridin-6(5H)-one] were under 300 nM and 17%.
Taken in the same sequence, the figures for `Cc1nc(NCc2cnn(Cc3ccc(C(F)(F)F)o3)c2)nc2c1NC(=O)[C@H](C(C)C)N2C` [Compound 518, (S)-7-isopropyl-4,8-dimethyl-2-(((1-((5-(trifluoromethyl)furan-2-yl)methyl)-1H-pyrazol-4-yl)methyl)amino)-7,8-dihydropteridin-6(5H)-one] were under 300 nM and 21%.
For `Cc1nc(NCc2cnn(Cc3cc(F)c(F)c(F)c3)c2)nc2c1NC(=O)[C@H](C(C)C)N2C` [Compound 449, (S)-7-isopropyl-4,8-dimethyl-2-(((1-(3,4,5-trifluorobenzyl)-1H-pyrazol-4-yl)methyl)amino)-7,8-dihydropteridin-6(5H)-one], in that order: under 300 nM and 22%.
In the case of “(S)-7-ethyl-2-(((1-((2-isopropyloxazol-5-yl)methyl)-1H-pyrazol-4-yl)methyl)amino)-4,8-dimethyl-7,8-dihydropteridin-6(5H)-one [Compound 513]”, the IC50 in assay [1] was under 300 nM. In addition, in assay [2], the “Percent Remaining Activity” value came out at 90%.
As to `Cc1nc(NCc2cnn(Cc3cnc(Cl)s3)c2)nc2c1NC(=O)[C@H](C(C)C)N2C` [Compound 491, (S)-2-(((1-((2-chlorothiazol-5-yl)methyl)-1H-pyrazol-4-yl)methyl)amino)-7-isopropyl-4,8-dimethyl-7,8-dihydropteridin-6(5H)-one], the IC50 in assay [1] (Homo sapiens, COLO 205, 5 h) is under 300 nM. For the same compound, in assay [2], the “Percent Remaining Activity” value was 41%.
